Test results: article PMC5355037, “The repurposed anthelmintic mebendazole in combination with trametinib suppresses refractory NRAS^Q61K melanoma” (Oncotarget, 2017)
Values belong to the molecule of their own block, whether it stands above or below them.

How the values were obtained:
[1] = molecular target: BRAF (Homo sapiens, UniProt P15056); test: in vitro kinase assay, percent control and binding affinity
[2] = molecular target: BRAF (V600E) (Homo sapiens, UniProt P15056, V600E); test: as above; conditions: Kinase Target BRAF (V600E)
Sequence of BRAF (V600E) (P15056 whole entry V600E): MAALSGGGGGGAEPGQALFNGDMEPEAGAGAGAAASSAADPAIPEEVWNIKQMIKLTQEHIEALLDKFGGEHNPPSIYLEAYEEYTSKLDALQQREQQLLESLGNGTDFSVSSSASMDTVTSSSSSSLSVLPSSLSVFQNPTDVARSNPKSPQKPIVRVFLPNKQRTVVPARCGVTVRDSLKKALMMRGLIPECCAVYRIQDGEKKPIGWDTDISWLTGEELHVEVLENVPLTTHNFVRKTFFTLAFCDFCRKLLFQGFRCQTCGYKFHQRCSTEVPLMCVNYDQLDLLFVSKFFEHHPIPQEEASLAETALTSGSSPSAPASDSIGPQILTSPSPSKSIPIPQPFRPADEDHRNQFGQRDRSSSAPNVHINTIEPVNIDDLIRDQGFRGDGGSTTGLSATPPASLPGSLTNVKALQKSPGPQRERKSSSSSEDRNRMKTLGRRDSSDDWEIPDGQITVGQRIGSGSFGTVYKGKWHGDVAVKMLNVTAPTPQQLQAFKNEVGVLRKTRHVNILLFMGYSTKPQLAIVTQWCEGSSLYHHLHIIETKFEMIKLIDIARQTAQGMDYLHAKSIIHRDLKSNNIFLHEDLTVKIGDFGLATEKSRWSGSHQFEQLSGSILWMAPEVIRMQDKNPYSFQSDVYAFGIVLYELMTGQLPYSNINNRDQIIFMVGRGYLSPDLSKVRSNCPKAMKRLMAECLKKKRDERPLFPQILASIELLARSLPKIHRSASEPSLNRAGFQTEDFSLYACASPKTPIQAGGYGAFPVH

[3] = molecular target: MEK1 (Homo sapiens, UniProt Q02750); test: in vitro kinase assay, percent control; assay type: binding; conditions: Kinase Target MEK1
Sequence of MEK1 (Q02750 whole entry): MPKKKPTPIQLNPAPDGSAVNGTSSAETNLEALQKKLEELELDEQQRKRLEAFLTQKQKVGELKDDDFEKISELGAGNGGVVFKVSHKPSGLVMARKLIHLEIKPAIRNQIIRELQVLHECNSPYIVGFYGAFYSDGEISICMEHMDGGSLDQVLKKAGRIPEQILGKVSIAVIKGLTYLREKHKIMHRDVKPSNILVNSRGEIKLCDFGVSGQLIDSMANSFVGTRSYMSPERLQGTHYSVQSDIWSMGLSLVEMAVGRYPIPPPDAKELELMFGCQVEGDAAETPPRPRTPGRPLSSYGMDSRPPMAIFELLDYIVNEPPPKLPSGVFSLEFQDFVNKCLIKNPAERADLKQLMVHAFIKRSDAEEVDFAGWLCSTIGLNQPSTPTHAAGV

[4] = molecular target: MEK2 (Homo sapiens, UniProt P36507); test: in vitro kinase assay, percent control; assay type: binding; conditions: Kinase Target MEK2
Sequence of MEK2 (P36507 whole entry): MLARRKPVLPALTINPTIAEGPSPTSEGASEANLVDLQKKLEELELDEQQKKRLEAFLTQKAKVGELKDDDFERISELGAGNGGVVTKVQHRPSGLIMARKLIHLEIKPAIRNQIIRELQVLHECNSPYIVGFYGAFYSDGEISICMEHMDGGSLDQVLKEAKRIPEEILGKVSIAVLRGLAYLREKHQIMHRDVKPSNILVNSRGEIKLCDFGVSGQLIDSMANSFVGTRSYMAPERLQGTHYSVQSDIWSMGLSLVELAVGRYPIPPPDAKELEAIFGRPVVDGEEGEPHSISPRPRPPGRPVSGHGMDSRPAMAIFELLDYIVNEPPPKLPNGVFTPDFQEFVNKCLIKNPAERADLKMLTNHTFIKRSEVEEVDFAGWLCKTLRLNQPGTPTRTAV

[5] = molecular target: C-RAF (Homo sapiens, UniProt P04049); test: in vitro kinase assay, percent control; assay type: binding; conditions: Kinase Target C-RAF
Sequence of C-RAF (P04049 whole entry): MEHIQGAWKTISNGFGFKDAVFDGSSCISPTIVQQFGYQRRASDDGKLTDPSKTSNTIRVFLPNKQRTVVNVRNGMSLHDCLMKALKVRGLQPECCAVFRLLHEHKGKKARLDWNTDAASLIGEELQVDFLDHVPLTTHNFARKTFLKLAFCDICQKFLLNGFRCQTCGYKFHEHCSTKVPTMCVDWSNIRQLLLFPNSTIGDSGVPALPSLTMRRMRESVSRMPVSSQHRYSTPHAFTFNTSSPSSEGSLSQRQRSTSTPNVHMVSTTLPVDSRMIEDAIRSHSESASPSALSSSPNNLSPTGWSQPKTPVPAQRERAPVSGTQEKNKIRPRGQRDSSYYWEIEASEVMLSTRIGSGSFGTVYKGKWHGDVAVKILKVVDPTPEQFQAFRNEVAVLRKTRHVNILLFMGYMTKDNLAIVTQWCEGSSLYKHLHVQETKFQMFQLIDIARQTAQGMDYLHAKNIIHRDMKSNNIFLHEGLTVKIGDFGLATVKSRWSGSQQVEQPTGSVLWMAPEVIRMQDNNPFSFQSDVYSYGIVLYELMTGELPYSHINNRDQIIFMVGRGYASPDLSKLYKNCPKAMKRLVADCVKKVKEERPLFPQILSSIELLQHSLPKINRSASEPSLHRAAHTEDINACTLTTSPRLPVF

[6] = molecular target: VEGFR2 (Homo sapiens, UniProt P35968); test: in vitro kinase assay, percent control and binding affinity; conditions: Kinase Target VEGFR2
Sequence of VEGFR2 (P35968 20-1356): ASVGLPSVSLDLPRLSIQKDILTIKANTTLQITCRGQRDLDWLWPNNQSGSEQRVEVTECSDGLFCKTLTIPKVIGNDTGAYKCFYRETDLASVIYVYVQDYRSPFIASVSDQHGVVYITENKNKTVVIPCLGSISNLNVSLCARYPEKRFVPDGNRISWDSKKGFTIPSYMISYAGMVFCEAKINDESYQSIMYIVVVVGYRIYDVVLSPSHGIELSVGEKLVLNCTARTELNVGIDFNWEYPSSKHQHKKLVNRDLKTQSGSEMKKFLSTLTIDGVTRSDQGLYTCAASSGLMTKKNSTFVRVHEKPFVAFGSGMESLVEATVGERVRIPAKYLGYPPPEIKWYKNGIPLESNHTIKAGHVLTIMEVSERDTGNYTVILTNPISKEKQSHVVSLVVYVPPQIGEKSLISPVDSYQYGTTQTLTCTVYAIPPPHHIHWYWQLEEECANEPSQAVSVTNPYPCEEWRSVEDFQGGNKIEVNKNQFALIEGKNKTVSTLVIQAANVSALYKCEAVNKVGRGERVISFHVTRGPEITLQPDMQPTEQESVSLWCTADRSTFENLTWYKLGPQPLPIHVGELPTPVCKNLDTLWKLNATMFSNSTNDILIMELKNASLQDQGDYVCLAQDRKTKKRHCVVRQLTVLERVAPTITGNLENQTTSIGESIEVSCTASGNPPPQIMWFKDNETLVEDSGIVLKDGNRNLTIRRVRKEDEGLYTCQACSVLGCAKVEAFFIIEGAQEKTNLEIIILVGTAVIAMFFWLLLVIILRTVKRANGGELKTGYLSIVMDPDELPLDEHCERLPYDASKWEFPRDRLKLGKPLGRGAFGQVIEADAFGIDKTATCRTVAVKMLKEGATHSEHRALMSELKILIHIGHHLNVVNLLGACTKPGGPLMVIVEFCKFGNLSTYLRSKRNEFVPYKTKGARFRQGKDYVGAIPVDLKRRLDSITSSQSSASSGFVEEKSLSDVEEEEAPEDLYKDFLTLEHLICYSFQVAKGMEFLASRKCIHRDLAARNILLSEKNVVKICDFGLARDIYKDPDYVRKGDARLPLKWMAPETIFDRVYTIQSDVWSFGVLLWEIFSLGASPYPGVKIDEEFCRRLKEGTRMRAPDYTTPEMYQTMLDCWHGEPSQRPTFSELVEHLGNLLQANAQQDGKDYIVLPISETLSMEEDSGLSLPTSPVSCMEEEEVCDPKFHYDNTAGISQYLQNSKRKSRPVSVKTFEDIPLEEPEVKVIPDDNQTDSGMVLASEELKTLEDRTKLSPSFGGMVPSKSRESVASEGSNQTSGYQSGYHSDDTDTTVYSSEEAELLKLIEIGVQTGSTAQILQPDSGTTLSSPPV

[7] = test system: BAK, BUL and STU melanoma cells; test: XTT cell viability assay, statements for all three lines; assay type: cell-based, human; conditions: 72 h; for concentration at which significant growth inhibition was observed: 2-way ANOVA; for cytotoxic activity as single agent (in words): all three cell lines
Protocol: MBZ, dabrafenib, and trametinib were purchased from Sigma-Aldrich and ActiveBiochem, respectively. 5 × 10^3 viable cells per well were plated in 96-well dishes and allowed to recover for 12 h prior to drug treatment. Cells in triplicate wells were treated for up to 72 h (based on initial time course experiments showing maximal effects at that time point) with different concentrations of trametinib, dabrafenib, or MBZ alone, or a combination of MBZ and trametinib. Negative controls were exposed to vehicle DMSO in the same volumes. Cell viability was assessed by an XTT assay, according to a manufacturer's specifications (Biotium Inc). Reduced XTT was measured by absorbance at 490 nm on a PerkinElmer Victor3 plate reader. Cells exposed to detergent served as a positive control.
The results shown are based on a single experiment in triplicate, and repeated in three independent experiments with essentially the same results. Data from triplicates of treatment groups were compared using Student's t-test or 2-way ANOVA (multiple comparisons) for significance, and p values of < 0.05 were considered statistically significant. For tumor sizes, the rate-based T/C (tumor/control) test of significance was used as described, using the author's template. The results are representative of 3 independent experiments with reproducible results. For determining synergism, the combination index (τ) was calculated from single dose-response curves and combination experiments as τ = xA/XA+xB/XB, in which, for a given cytotoxic effect, xA and xB are the concentrations of drugs A and B in the combination, and XA and XB are the concentrations of drugs A and B that achieve the same cytotoxic effect when given alone. A τ value of 1 indicates additivity, τ less than 1 indicates synergy, and τ greater than 1 indicates antagonism.

[8] = test system: BAK melanoma cells xenografted into athymic mice; test: mouse xenografting, tumor growth; assay type: in vivo; conditions: gavage; for tumor growth (in words): trametinib 0.1 or 3 mg/kg/qd, alone or combined
Protocol: All animal experiments were performed in accordance with the guidelines and approval of Georgetown University Animal Care and Use Committee. Athymic 6-week old male mice (Taconic) were acclimated to the Division of Comparative Medicine at Georgetown University a week prior to xenografting. 3×10^6 melanoma cells were resuspended in Matrigel and injected subcutaneously into the hind flanks of athymic mice using a 22-gauge needle. […] Drugs were administered by oral gavage. Each testing group contained three to five mice in each of four experiments. Each tumor from each treatment group was measured on indicated days, and all tumor sizes were then normalized to their size at day 0 of drug treatment. All data from all four experiments was then combined for statistical analysis, to compare every mouse from each treatment group. […] The results were expressed as the mean (±SD) of tumor volume in each group. After five weeks, mice were euthanized; tumors extracts were derived for immunoblot analysis. […] This yields a similar constant to that calculated by Mosteller for humans: BSA (m^2) = [[…] (kg)]*60 [36]. […] For high dose trametinib, this is equivalent to 14.4 mg/person/day. […] By comparison, patient doses range from 100 mg one time (pinworms) to 200 mg/kg per day for 12 weeks ([…] disease in children) including doses up to 6 g per day. […] The results shown are based on a single experiment in triplicate, and repeated in three independent experiments with essentially the same results. […] For tumor sizes, the rate-based T/C (tumor/control) test of significance was used as described, using the author's template. The results are representative of 3 independent experiments with reproducible results. For determining synergism, the combination index (τ) was calculated from single dose-response curves and combination experiments as τ = xA/XA+xB/XB, in which, for a given cytotoxic effect, xA and xB are the concentrations of drugs A and B in the combination, and XA and XB are the concentrations of drugs A and B that achieve the same cytotoxic effect when given alone.

[9] = test system: pMEK1/2 S217/221; test: immunoblot analysis of BAK cells; assay type: cell-based, human; conditions: 100 nM, combination within 30 min
Protocol: (§1) SDS-PAGE and transfer of separated proteins to nitrocellulose membranes were performed according to standard procedures. Membranes were stained with Ponceau S (0.1%) to verify equal loading and transfer of proteins, and then incubated with antibodies specific for pERK1/2 T202/Y204, pMEK1/2 S217/221, pBAD S-112, total BAD, total ERK1/2, total MEK1/2, BCL2 (Santa Cruz Biotech), BCLXL (Santa Cruz Biotech), cleaved PARP (Cell Signaling), or GAPDH (Abcam; loading control). Immune complexes were detected by incubation with appropriate horseradish peroxidase-conjugated antibodies to mouse or rabbit IgG (1:3000) and enhanced chemiluminescence (Pierce, Rockford, IL).

[10] = test system: phosphorylation of ERK1/2 (T202/Y204); test: immunoblot analysis of BAK cells; assay type: cell-based, human; conditions: 100 nM, combination undetectable by 30 min
Protocol: as §1

[11] = test system: MEK1/2 and ERK1/2 phosphorylation; test: immunoblot analysis of tumor xenograft extracts; assay type: in vivo, mice; conditions: tumors collected at termination; combination = HDT+MBZ
Protocol: All animal experiments were performed in accordance with the guidelines and approval of Georgetown University Animal Care and Use Committee. Athymic 6-week old male mice (Taconic) were acclimated to the Division of Comparative Medicine at Georgetown University a week prior to xenografting. 3×10^6 melanoma cells were resuspended in Matrigel and injected subcutaneously into the hind flanks of athymic mice using a 22-gauge needle. […] Drugs were administered by oral gavage. Each testing group contained three to five mice in each of four experiments. Each tumor from each treatment group was measured on indicated days, and all tumor sizes were then normalized to their size at day 0 of drug treatment. All data from all four experiments was then combined for statistical analysis, to compare every mouse from each treatment group. […] The results were expressed as the mean (±SD) of tumor volume in each group. After five weeks, mice were euthanized; tumors extracts were derived for immunoblot analysis. SDS-PAGE and transfer of separated proteins to nitrocellulose membranes were performed according to standard procedures. […] Immune complexes were detected by incubation with appropriate horseradish peroxidase-conjugated antibodies to mouse or rabbit IgG (1:3000) and enhanced chemiluminescence (Pierce, Rockford, IL).

[12] = test system: VEGFR-2; parameters: method as in PMID 26234515, PMID 22780961, PMID 24135855; conditions: cited from earlier work
[13] = test system: PDGFRA; parameters: method as in PMID 26234515, PMID 22780961, PMID 24135855; conditions: cited from earlier work
[14] = test system: PDGFRB; parameters: method as in PMID 26234515, PMID 22780961, PMID 24135855; conditions: cited from earlier work
[15] = molecular target: roundworm tubulin; parameters: method as in PMID 7388055; conditions: nematode and cestode parasite tubulin; read-out: apparent binding affinity for tubulin; cited from earlier work
[16] = molecular target: human tubulin; parameters: method as in PMID 7388055; conditions: much lower than for parasite tubulin; cited from earlier work
[17] = parameters: method as in PMID 7094986; conditions: chronic oral MBZ 10 mg/kg/day, cited from earlier work
[18] = test system: BAK and BUL melanoma cells; test: apoptosis (fluorometric caspase-3 activity, sub-G1) and cell cycle assays; assay type: cell-based, human; conditions: 100 nM, all time points
Source text: Cells were collected, fixed in ethanol, stained with propidium iodide (PI) to determine DNA content, and analyzed by flow cytometry (FACStar PLus; BD BioSciences, San Jose, CA).
Cytosolic extracts, derived from pooled floating and attached cells, were subjected to fluorometric caspase-3 activity assays using fluorescent tetrapeptide substrate specific for caspases-3 (Ac-DEVD-aminomethylcoumarin (AMC, Enzo Life Sciences, Ann Arbor, MI) as previously described. Free AMC, generated as a result of cleavage of the aspartate-AMC bond, was monitored over 30 min with a Wallac Victor^3 fluorometer (Perkin-Elmer, Waltham, MA) at excitation and emission wavelengths of 360 and 460 nm, respectively. The emission from each sample was plotted against time, and linear regression analysis of the initial velocity (slope) for each curve yielded the activity.

Sequence of BRAF (P15056 whole entry): as the sequence (P15056 whole entry V600E) above, with E600V counted along it

remaining activity at 10 µM ([1]; 10 μM, Kinase Target BRAF): 7.8%
Kd ([1]; Kinase Target BRAF (BRAF^WT)): 0.23 µM
remaining activity at 10 µM ([2]; 10 μM): 3.2%
Kd [2]: 0.21 µM
remaining activity at 10 µM [3]: 16%
remaining activity at 10 µM [4]: 12%
remaining activity at 10 µM [5]: 23%
remaining activity at 10 µM [6]: 20%
Compound: COC(=O)Nc1nc2ccc(C(=O)c3ccccc3)cc2[nH]1 [MBZ, methyl N-[6-(benzoyl)-1H-benzimidazol-2-yl] carbamate]
concentration at which significant growth inhibition was observed [7]: ≥ 10 nM
cytotoxic activity as single agent (in words) [7]: weak cytotoxic activity
Rate-based T/C ([8]; MBZ vs Vehicle, MBZ 40 mg/kg/qad): 1.04
tumor growth (in words) ([8]; MBZ 40 mg/kg/qad): did not work as a monotherapy
pMEK1/2 S217/221 activating phosphorylation (in words) [9]: not inhibited
activating phosphorylation of ERK1/2 (T202/Y204) (in words) [10]: diminished
MEK1/2 and ERK1/2 phosphorylation in tumors (in words) [11]: ability to suppress
concentration at which MBZ inhibits VEGFR-2 [12]: 3.6 µM
concentration at which MBZ inhibits PDGFRA [13]: 820 nM
concentration at which MBZ inhibits PDGFRB [14]: 660 nM
Kd [15]: 0.019 µM
affinity for human tubulin [16]: µM range
peak plasma level, variability between patients [17]: 0.34 to 1.69 µM
mean peak plasma level ([17]; patients): 470 nM

Compound: CC(C)(C)c1nc(-c2cccc(NS(=O)(=O)c3c(F)cccc3F)c2F)c(-c2ccnc(N)n2)s1 [dabrafenib]
concentration at which significant growth inhibition was observed [7]: ≥ 1000 nM
cytotoxic activity as single agent (in words) [7]: resistance to dabrafenib except at the highest doses tested

Compound: CC(=O)Nc1cccc(-n2c(=O)n(C3CC3)c(=O)c3c(Nc4ccc(I)cc4F)n(C)c(=O)c(C)c32)c1 [trametinib]
concentration at which significant growth inhibition was observed [7]: ≥ 1 nM
Rate-based T/C ([8]; HDT vs Vehicle, high dose trametinib 3 mg/kg/qd): 0.73
Rate-based T/C ([8]; LDT vs Vehicle, low dose trametinib 0.1 mg/kg/qd): 0.93
tumor growth (in words) ([8]; MBZ 40 mg/kg/qad): did not show any significant tumor-suppressive effects
percentage of cells in S phase (in words) [18]: decreased
pMEK1/2 S217/221 activating phosphorylation (in words) [9]: not inhibited
activating phosphorylation of ERK1/2 (T202/Y204) (in words) [10]: diminished
MEK1/2 and ERK1/2 phosphorylation in tumors (in words) [11]: ability to suppress
